From patent publication US9744250B2, “Chemical model of a neurodegenerative disease, method for preparation and uses of same” (priority 2012, dated 2017)

How the values were obtained:
[1] = system: SH-SY5Y neuronal cells; test: Cell viability test in MTT; type: cell-based, human
Description: Cells from SH-SY5Y human neuroblastomas were cultured in a DMEM medium containing 4.5 g·L^−1 glucose, 10% fetal calf serum, and 1% penicillin/streptomycin, and placed in an incubator at 37° C. with 7% CO2.
In the various experiments, the SH-SY5Y cells were seeded at a density of 4×10^4 cells/mL. 24 h after seeding, the cells were exposed to the various test compounds at 37° C. for 24 h, 48 h, 72 h, or 96 h.
This test consisted of rapidly measuring cellular metabolic activity in the presence of the study compound at different concentrations, in order to conduct a dose-response study. To do this, the tetrazolium salt MTT, 3-(4,5-dimethylthiazol-2-yl)-2,5-diphenyltetrazolium bromide (Amoroso et al., Biochim Biophys Acta, 1999, 1452(2):151-60), was placed in contact with the cells. MTT is reduced to formazan by living cells that have the capacity to metabolize it, unlike dead cells. To conduct this test, SH-SY5Y neuronal cells in 48-well plates were incubated for 24 h, 48 h, 72 h, and 96 h, with furosemide pyridinium at concentrations ranging from 0 to 1000 μM. Then MTT (0.5 mg/ml final) was added to each well and incubated at 37° C. for 2 h. At the end of incubation, after carefully removing the medium, DMSO was added (200 μL) to dissolve the cell membranes and the formazan crystals formed by the living cells. The toxicity of the molecule was evaluated by determining the amount of reduced MTT, doing so by measuring the absorbance at 550 nm as this value is proportional to the number of living cells. The results were expressed as a function of the values obtained for cells treated only with the solvent used to dissolve the compound of interest. To compare the toxicity of furosemide pyridinium to that of MPP+, the cells were incubated in the presence of MPP+ (0 to 1000 μM) for 6 h. The culture medium was replaced and the cells were incubated at 37° C. for an additional 24 h (no MPP+). Cell survival was measured at the end of these 24 hours of incubation as described above. When evaluating the effect of different concentrations of α-tocopherol (vitamin E), a membrane antioxidant, the cells were pretreated for 24 h with this antioxidant before being exposed to furosemide pyridinium at a concentration of 0.5 mM under the same experimental conditions as above.

[2] = system: mitochondrial complex I; test: Spectrophotometric analysis of complex I activity (NADH oxidation); type: biochemical, rat
Description: (§1) The animal was then decapitated in order to collect from the brain either the cortex or the striatum, which were quickly placed in a Potter Elvejhem® containing 6 ml of extraction buffer at 4° C. (250 mM sucrose, 40 mM KCl, 2 mM EGTA, lmg/ml BSA, 20 mM Tris, pH=7.2). This mixture was homogenized to break open the cells and release the mitochondria and then centrifuged at 2000 g for 8 minutes to remove the larger membrane debris and the nuclei from the pellet. The supernatant was then recovered and centrifuged at 13,000 g for 11 minutes. The supernatant was discarded while the pellet containing a mitochondria-rich fraction was resuspended in 500 μl of respiration buffer at 4° C. (300 mM D-mannitol, 10 mM KCl, 10 mM KH2PO4, 5 mM MgCl2, pH=7.2). […]
The kinetics of the oxidation reaction of NADH into NAD+ at 340 nm at 37° C. were continuously monitored by spectrophotometry using a JASCO V-530 spectrophotometer or a TECAN 1000M Infinite plate reader, set to a wavelength of 340 nm for 3 min. The amount of mitochondria extract to obtain the maximum activity introduced into the reaction volume was 100 μg with the spectrophotometer and 10 μg with the reader. […] The slope of the kinetics was then measured. […] The inhibition percentage was then calculated.

[3] = system: caspase-8; test: Caspase-8 activity (Ac-IETD-AFC cleavage) in SH-SY5Y cells; type: cell-based, human; settings: 1 mM, 6 h (+24 h without MPP+)
Description: Measurement of the activities of the various caspases is based on the ability of the caspases to cleave specific fluorescent substrates: Ac-DEVD-AFC for caspase-3, Ac-IETD-AFC for caspase-8, or Ac-LEHD-AFC for caspase-9. SH-SY5Y neuronal cells were incubated in 48-well plates with either furosemide pyridinium (1 mM) for 96 h or with MPP+ (1 mM) for 6 h, then 24 h of incubation with no MPP+. After incubation, the cells were trypsinized, then rinsed with PBS and counted, then harvested in 100 μl of buffer containing 30 mM HEPES, 0.3 mM EDTA, 100 mM NaCl, 0.15% Triton X-100, and 10 mM DTT. The cell extract was then incubated for 1 hour at 37° C. with the specific substrate (100 μM) in a 96-well plate. Fluorescence was measured at λex400 nm and λem505 nm in a fluorescence detection plate reader (TECAN Infinite M1000) (Yue et al., supra). The results were expressed as percentages relative to the measured activity of cells cultured under the same conditions and not subjected to any treatment.

[4] = system: α-synuclein; test: Cellular accumulation of α-synuclein (Western blot) in SH-SY5Y cells; type: cell-based, human; settings: 1 mM, 6 h incubation (+24 h without MPP+)
Description: Cells were incubated under the same conditions as above with furosemide pyridinium (1 mM, incubation: 96 h) and MPP+ (1 mM, incubation: 6 h, wait 24 h). After incubation, the cells were trypsinized, rinsed with PBS, counted, then harvested in 100 μl of buffer containing: 250 mM sucrose; 70 mM KCl; 137 mm NaCl; 4.3 mm NaH2PO4; 1.4 mm KH2PO4, pH 7.2; and […] digitonin. Incubation at 4° C. was then conducted for 5 minutes before centrifuging at 13,000 g for 5 minutes to separate the cytosolic and lysosomal fraction from the mitochondrial fraction. Deposits of cytosolic fraction in the Western blot were adjusted according to the number of cells. The protein samples were diluted in 4× Laemmli and were then heated for 3 minutes at 95° C. to denature. They were loaded into the wells of gel. In addition to the samples, a molecular weight marker (Fermentas) was deposited in the gel. […] The transfer was carried out on PVDF membrane. The transfer was done in transfer buffer (25 mM Tris, 192 mM glycine, 10% methanol) overnight at 4° C. and 30V or for 2 hours at 4° C. and 80V. […] Then the membranes were immunolabeled for 1.5 h at room temperature with a primary antibody diluted in 1×PBS/0.2% Tween/3% milk. […] The primary antibody used was anti-α-synuclein, 1:500 (visualized with an anti-rabbit secondary antibody, 1:10,000).

[5] = system: mitochondria isolated from rat cerebral cortex; test: Respiratory control (oxygen consumption, malate/pyruvate) of isolated cerebral cortex mitochondria; type: biochemical; settings: increasing concentration
Description: as §1
Added to the polarography chamber (Hansatech) were 30 μl of mitochondria solution (0.2 mg), 460 μL of respiration buffer, 5 μl of test compound solution (meaning MPP+ or furosemide pyridinium) (or its solubilizing solvent). […] The effect of the compound on respiratory control was evaluated (ratio of stage 3 to 4), which corresponds to the coupling of the respiratory chain, or in other words the ATP synthesis at complex V and the oxygen consumption due to complexes I to IV. The results are expressed as percentages of the value measured for mitochondria not treated with the test compound (but treated with the solubilizing solvent).

[6] = system: respiratory chain complexes II-V of rat cerebral cortex mitochondria; test: Respiratory control after induction of complex II by succinate and inhibition of complex I by rotenone; type: biochemical; settings: 1 mM, succinate
Description: as §1
Added to the polarography chamber (Hansatech) were 30 μl of mitochondria solution (0.2 mg), 460 μL of respiration buffer, 5 μl of test compound solution (meaning MPP+ or furosemide pyridinium) (or its solubilizing solvent). […] The effect of the compound on respiratory control was evaluated (ratio of stage 3 to 4), which corresponds to the coupling of the respiratory chain, or in other words the ATP synthesis at complex V and the oxygen consumption due to complexes I to IV. The results are expressed as percentages of the value measured for mitochondria not treated with the test compound (but treated with the solubilizing solvent). […]

Cc1c(C)c2c(c(C)c1O)CC[C@@](C)(CCC[C@H](C)CCC[C@H](C)CCCC(C)C)O2 [α-tocopherol]
concentration at which the protective effect becomes visible ([1]; 24 h pretreatment, then 0.5 mM furosemide pyridinium): 0.1 mg/mL | cell survival rate after 24 h pretreatment before 0.5 mM furosemide pyridinium ([1]; 24 h pretreatment, then 0.5 mM furosemide pyridinium 96 h): increased the cell survival rate in a dose-dependent manner | increase of cell survival, α-tocopherol alone ([1]; pretreatment 1 μg/mL, without furosemide pyridinium): 20% | change of cell survival, α-tocopherol alone ([1]; pretreatment 0.01 and 0.1 μg/mL, without furosemide pyridinium): did not change cell survival

Clc1ccc(-[n+]2ccccc2)cc1.[Cl-] [1-(4-chlorophenyl) pyridinium, 1-(4-chlorophenyl) pyridinium chloride]
inhibition of complex I activity ([2]; concentration not given): 95%

Oc1ccc[n+](-c2ccc(Cl)cc2)c1.[Cl-] [1-(4-chlorophenyl)-3-hydroxypyridinium, 1-(4-chlorophenyl)-3-hydroxypyridinium chloride]
inhibition of complex I activity ([2]; 0.2 mM): complete inhibition

C[n+]1ccc(-c2ccccc2)cc1 [MPP+, reference compound]
cell death ([1]; 1 mM, 6 h incubation (+24 h without MPP+)): massive cell death | EC50 ([1]; 6 h incubation (+24 h without MPP+), read-out: EC50 (cell survival)): 386 ± 19.2 µM | change in caspase-8 activity [3]: did not induce significant changes | increase in the total amount of α-synuclein compared to control cells [4]: 319% | respiratory control of cerebral cortex mitochondria induced by malate/pyruvate [5]: diminished | respiratory control of cortex mitochondria after induction by complex II [6]: not modified
